{"source": "PubChem BioAssay (NCI)", "assay_in_all_cases": "growth of human tumour cells (NCI), 48 h", "key": {"786-0 renal": {"tested_on": "786-0 renal"}, "A498 renal": {"tested_on": "A498 renal"}, "A549 NSCLC": {"tested_on": "A549 NSCLC"}, "ACHN renal": {"tested_on": "ACHN renal"}, "BT-549 breast": {"tested_on": "BT-549 breast"}, "CAKI-1 renal": {"tested_on": "CAKI-1 renal"}, "CCRF-CEM leukemia": {"tested_on": "CCRF-CEM leukemia"}, "COLO 205 colon": {"tested_on": "COLO 205 colon"}, "DU-145 prostate": {"tested_on": "DU-145 prostate"}, "EKVX NSCLC": {"tested_on": "EKVX NSCLC"}, "HCC-2998 colon": {"tested_on": "HCC-2998 colon"}, "HCT-116 colon": {"tested_on": "HCT-116 colon"}, "HCT-15 colon": {"tested_on": "HCT-15 colon"}, "HL-60(TB) leukemia": {"tested_on": "HL-60(TB) leukemia"}, "HOP-62 NSCLC": {"tested_on": "HOP-62 NSCLC"}, "HOP-92 NSCLC": {"tested_on": "HOP-92 NSCLC"}, "HS 578T breast": {"tested_on": "HS 578T breast"}, "HT29 colon": {"tested_on": "HT29 colon"}, "IGROV1 ovarian": {"tested_on": "IGROV1 ovarian"}, "K-562 leukemia": {"tested_on": "K-562 leukemia"}, "KM12 colon": {"tested_on": "KM12 colon"}, "LOX IMVI melanoma": {"tested_on": "LOX IMVI melanoma"}, "M14 melanoma": {"tested_on": "M14 melanoma"}, "MALME-3M melanoma": {"tested_on": "MALME-3M melanoma"}, "MCF7 breast": {"tested_on": "MCF7 breast"}, "MDA-MB-231 breast": {"tested_on": "MDA-MB-231 breast"}, "MOLT-4 leukemia": {"tested_on": "MOLT-4 leukemia"}}, "note": "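1) Cells in 96-well plates. 2) Compound, 48 h, 5 concentrations. 3) Linear interpolation between surrounding doses. 4) Unreached endpoint = highest concentration. GI50 is the concentration that inhibits growth by half. TGI denotes the concentration required for complete inhibition of growth.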", "data": [{"smiles": "O=C(O)C1(Cc2cccc(Nc3nccs3)n2)CCC(Oc2cccc(Cl)c2F)CC1", "note": "(centres undefined)", "values": [{"measurement": "GI50", "setting": "786-0 renal", "value": 15.5, "unit": "µM"}, {"measurement": "TGI", "setting": "786-0 renal", "value": 40.3, "unit": "µM"}, {"measurement": "GI50", "setting": "A498 renal", "value": 3.95, "unit": "µM"}, {"measurement": "TGI", "setting": "A498 renal", "value": 19.4, "unit": "µM"}, {"measurement": "GI50", "setting": "A549 NSCLC", "value": 5.8, "unit": "µM"}, {"measurement": "TGI", "setting": "A549 NSCLC", "value": "> 60", "unit": "µM"}, {"measurement": "GI50", "setting": "ACHN renal", "value": 14.4, "unit": "µM"}, {"measurement": "TGI", "setting": "ACHN renal", "value": "> 100", "unit": "µM"}, {"measurement": "GI50", "setting": "BT-549 breast", "value": 14.6, "unit": "µM"}, {"measurement": "TGI", "setting": "BT-549 breast", "value": 32.1, "unit": "µM"}, {"measurement": "GI50", "setting": "CAKI-1 renal", "value": 12.4, "unit": "µM"}, {"measurement": "TGI", "setting": "CAKI-1 renal", "value": 38.8, "unit": "µM"}, {"measurement": "GI50", "setting": "CCRF-CEM leukemia", "value": 1.23, "unit": "µM"}, {"measurement": "TGI", "setting": "CCRF-CEM leukemia", "value": "> 55.1", "unit": "µM"}, {"measurement": "GI50", "setting": "COLO 205 colon", "value": 0.876, "unit": "µM"}, {"measurement": "TGI", "setting": "COLO 205 colon", "value": 19.3, "unit": "µM"}, {"measurement": "GI50", "setting": "DU-145 prostate", "value": 14.4, "unit": "µM"}, {"measurement": "TGI", "setting": "DU-145 prostate", "value": 32.3, "unit": "µM"}, {"measurement": "GI50", "setting": "EKVX NSCLC", "value": 13.6, "unit": "µM"}, {"measurement": "TGI", "setting": "EKVX NSCLC", "value": 47.4, "unit": "µM"}, {"measurement": "GI50", "setting": "HCC-2998 colon", "value": 18.2, "unit": "µM"}, {"measurement": "TGI", "setting": "HCC-2998 colon", "value": 34.2, "unit": "µM"}, {"measurement": "GI50", "setting": "HCT-116 colon", "value": 0.64, "unit": "µM"}, {"measurement": "TGI", "setting": "HCT-116 colon", "value": 30.5, "unit": "µM"}, {"measurement": "GI50", "setting": "HCT-15 colon", "value": 3.34, "unit": "µM"}, {"measurement": "TGI", "setting": "HCT-15 colon", "value": 25.2, "unit": "µM"}, {"measurement": "GI50", "setting": "HL-60(TB) leukemia", "value": 3.43, "unit": "µM"}, {"measurement": "TGI", "setting": "HL-60(TB) leukemia", "value": "> 67.3", "unit": "µM"}, {"measurement": "GI50", "setting": "HOP-62 NSCLC", "value": 6.77, "unit": "µM"}, {"measurement": "TGI", "setting": "HOP-62 NSCLC", "value": 56.2, "unit": "µM"}, {"measurement": "GI50", "setting": "HOP-92 NSCLC", "value": 13, "unit": "µM"}, {"measurement": "TGI", "setting": "HOP-92 NSCLC", "value": 44.7, "unit": "µM"}, {"measurement": "GI50", "setting": "HS 578T breast", "value": 10.4, "unit": "µM"}, {"measurement": "TGI", "setting": "HS 578T breast", "value": 64, "unit": "µM"}, {"measurement": "GI50", "setting": "HT29 colon", "value": 7.56, "unit": "µM"}, {"measurement": "TGI", "setting": "HT29 colon", "value": 24.2, "unit": "µM"}, {"measurement": "GI50", "setting": "IGROV1 ovarian", "value": 15.9, "unit": "µM"}, {"measurement": "TGI", "setting": "IGROV1 ovarian", "value": 53.1, "unit": "µM"}, {"measurement": "GI50", "setting": "K-562 leukemia", "value": 0.468, "unit": "µM"}, {"measurement": "TGI", "setting": "K-562 leukemia", "value": "> 56.5", "unit": "µM"}, {"measurement": "GI50", "setting": "KM12 colon", "value": 0.204, "unit": "µM"}, {"measurement": "TGI", "setting": "KM12 colon", "value": 29.3, "unit": "µM"}, {"measurement": "GI50", "setting": "LOX IMVI melanoma", "value": 7.62, "unit": "µM"}, {"measurement": "TGI", "setting": "LOX IMVI melanoma", "value": 22.5, "unit": "µM"}, {"measurement": "GI50", "setting": "M14 melanoma", "value": 2.96, "unit": "µM"}, {"measurement": "TGI", "setting": "M14 melanoma", "value": 30.2, "unit": "µM"}, {"measurement": "GI50", "setting": "MALME-3M melanoma", "value": 20.5, "unit": "µM"}, {"measurement": "TGI", "setting": "MALME-3M melanoma", "value": 54.3, "unit": "µM"}, {"measurement": "GI50", "setting": "MCF7 breast", "value": 0.329, "unit": "µM"}, {"measurement": "TGI", "setting": "MCF7 breast", "value": 50.5, "unit": "µM"}, {"measurement": "GI50", "setting": "MDA-MB-231 breast", "value": 14.7, "unit": "µM"}, {"measurement": "TGI", "setting": "MDA-MB-231 breast", "value": 41.6, "unit": "µM"}, {"measurement": "GI50", "setting": "MOLT-4 leukemia", "value": 15.7, "unit": "µM"}, {"measurement": "TGI", "setting": "MOLT-4 leukemia", "value": 63.8, "unit": "µM"}]}]}
